Our source for the Observed efficacy values is US20190159455A1 (priority 2016, published 2019).

For the experiment, the system named is Phytophthora infestans(Phytin). The format is cell-based. The settings on record: 7 days after inoculation.

Read-outs that look alike come from different tables or passages of the source.

The compound `c1ccc(-c2noc(-c3cccs3)n2)cc1` [Tioxazafen, tioxazafen] registered an Observed efficacy (4 ppm) of 7. On to `O=C(NCCc1ncc(C(F)(F)F)cc1Cl)c1ccccc1C(F)(F)F` [Fluopyram, fluopyram], for which the Observed efficacy (1 ppm) amounted to 10.
